Assay results: patent US8334316B2, “Substituted organosulfur compounds and methods of using thereof” (ACEA Biosciences, Inc., priority 2004, dated 2012)
Several values for one entry are separate records, joined by “and”; a condition that tells them apart may be missing. Equal entries are not always repeated. Marks after values point to notes of the source that are not given here.

Assays:
mouse Lewis lung cancer = assay: In vivo antitumor efficacy, mouse Lewis lung cancer model, Example 2 (DBTS, CTX, Taxol reference); conditions: for tumor inhibition rate %: vs normal saline control
[1] = system: Bcap-37 human breast cancer; assay: Bcap-37 human breast cancer xenograft in nude mice, dosing from day 7 when tumors palpable (Example 5); type: in vivo
Experimental: Only female mice were used in this study. […] The high, middle and low doses of ACEA100108 were 50, […] and 8 mg/kg/d, respectively.
Preparation and Administration of Test Compounds. […] Seven days after the tumor transplantation, the transplanted tumors grew to size sufficiently large that could be felt by hands when one touched the animal. […] The high, middle and low dose of ACEA100108 was 50, 20 and 8 mg/kg, respectively.
About seven days after the transplantation, tumors in the mice grew sufficiently large so that tumor could be felt by hands when one touched the animals.
For the human breast cancer xenograft model, all used materials, including animal food, animal cage, supporting materials and apparatus contacted by animals, were high-pressure sterilized. Nude mice were maintained in laminar flow shelves under SPF condition. After tumor transplantation, mouse weight and tumor size in each compound dosage group were dynamically monitored and recorded. The tumors size was determined by measuring the major axis (a) and minor axis (b) of the tumor, and tumor volume was calculated according to the equation (3) in Example 3.

[2] = system: A549 human lung cancer cells; assay: Cell-cycle distribution by propidium iodide flow cytometry in A549 cells; type: cell-based; conditions: 7.8 nM, 24 hrs, vs DMSO
Experimental: Another in vitro assay may be used to evaluate the effect of compounds in arresting the cell cycle progression. More specifically, a test compound is added to cells of certain cell lines in a concentration-dependent manner. After cells are incubated for certain specific length of time, cells are stained using propidium iodide and are used for flow cytometric assessment. The cell populations of sub-G0/G1, G0/G1, S and G2/M phases are determined. All above in vitro assays are cell-based, single-time point (or multiple-time points using multiple plates) end-point assays.
Microtubules are extremely important in the process of mitosis, during which the duplicated chromosomes of a cell are separated into two identical sets before cleavage of the cell into two daughter cells. […] As consequence, cells will be arrested at G2/M phase.
In briefly, A549 cells were seeded at a density of 500,000 cells in 60 mm tissue culture dishes. Approximately 18 hours later the cells were treated with the indicated concentrations of anti-mitotic compounds and allowed to further incubate for 24 hours. The cells were washed in PBS, trypsinized, counted and fixed in ice-cold 70% methanol and stored at 4° C. The cells were washed with PBS, stained with propidium iodide and kept on ice until flow cytometry analysis.

CC(=O)O[C@H]1C(=O)[C@@]2(C)[C@H]([C@H](OC(=O)c3ccccc3)[C@]3(O)C[C@H](OC(=O)[C@H](O)[C@@H](NC(=O)c4ccccc4)c4ccccc4)C(C)=C1C3(C)C)[C@]1(OC(C)=O)CO[C@@H]1C[C@@H]2O [Taxol, paclitaxel, reference compound]
Tumor weight (mouse Lewis lung cancer; 7.5 mg/kg/d iv x5 qd): 1.98 ± 0.14 g | tumor inhibition rate % (mouse Lewis lung cancer; 7.5 mg/kg/d iv x5 qd): 30.28% | Tumor weight (mouse Lewis lung cancer; 10 mg/kg/d iv x5 qd): 1.79 ± 0.09 g | tumor inhibition rate % (mouse Lewis lung cancer; 10 mg/kg/d iv x5 qd): 36.97% | Tumor weight (mouse Lewis lung cancer; 15 mg/kg/d iv x5 qd): 1.45 ± 0.14 g | tumor inhibition rate % (mouse Lewis lung cancer; 15 mg/kg/d iv x5 qd): 48.94% | Body weight of mice ([1]; 10 mg/kg iv x7 qd, 0 d (beginning)): 18.8 g and 18.8 ± 1 g | Body weight of mice ([1]; 10 mg/kg iv x7 qd, 7 d): 20.5 ± 1 g | Mice with palpable tumor / total mice ([1]; 10 mg/kg iv x7 qd, 7 d): 6/6†† | Tumor volume (cm^3) ([1]; 10 mg/kg iv x7 qd, 7 d after transplantation (start of dosing)): 0.01 cm^3 | Tumor volume (cm^3) ([1]; 10 mg/kg iv x7 qd, 14 d): 0.103 ± 0.02 cm^3 | Tumor volume (cm^3) ([1]; 10 mg/kg iv x7 qd, 21 d): 0.283 ± 0.05 cm^3 | Tumor volume (cm^3) ([1]; 10 mg/kg iv x7 qd, 24 d): 0.799 ± 0.23 cm^3 | Tumor Volume Inhibition T/C % ([1]; 10 mg/kg/d iv x7 qd): 44.33% | Tumor weight ([1]; 10 mg/kg/d iv x7 qd): 0.92 ± 0.07 g | Tumor Inhibition Rate C − T/C % ([1]; 10 mg/kg/d iv x7 qd, based on tumor weight): 41.03% | Cell population at G2/M phase [2]: increased significantly
